Measurements taken from US12612380B2, “Non-lysosomal glucosylceramidase inhibitors and uses thereof” (ALECTOS THERAPEUTICS INC., priority 2019, dated 2026).
Like-named read-outs stand apart in the source and are kept apart here.

Columns and labels:
GBA2 [1] = biological target: T1, GBA2 (Homo sapiens, UniProt Q9HCG7); experiment: Binding specificity (selectivity) for GBA2 over other enzymes; type: biochemical; details: compared to a suitable reference compound, e.g. NB-DNJ (miglustat) or AMP-DNM
T1 sequence (Q9HCG7 1-927): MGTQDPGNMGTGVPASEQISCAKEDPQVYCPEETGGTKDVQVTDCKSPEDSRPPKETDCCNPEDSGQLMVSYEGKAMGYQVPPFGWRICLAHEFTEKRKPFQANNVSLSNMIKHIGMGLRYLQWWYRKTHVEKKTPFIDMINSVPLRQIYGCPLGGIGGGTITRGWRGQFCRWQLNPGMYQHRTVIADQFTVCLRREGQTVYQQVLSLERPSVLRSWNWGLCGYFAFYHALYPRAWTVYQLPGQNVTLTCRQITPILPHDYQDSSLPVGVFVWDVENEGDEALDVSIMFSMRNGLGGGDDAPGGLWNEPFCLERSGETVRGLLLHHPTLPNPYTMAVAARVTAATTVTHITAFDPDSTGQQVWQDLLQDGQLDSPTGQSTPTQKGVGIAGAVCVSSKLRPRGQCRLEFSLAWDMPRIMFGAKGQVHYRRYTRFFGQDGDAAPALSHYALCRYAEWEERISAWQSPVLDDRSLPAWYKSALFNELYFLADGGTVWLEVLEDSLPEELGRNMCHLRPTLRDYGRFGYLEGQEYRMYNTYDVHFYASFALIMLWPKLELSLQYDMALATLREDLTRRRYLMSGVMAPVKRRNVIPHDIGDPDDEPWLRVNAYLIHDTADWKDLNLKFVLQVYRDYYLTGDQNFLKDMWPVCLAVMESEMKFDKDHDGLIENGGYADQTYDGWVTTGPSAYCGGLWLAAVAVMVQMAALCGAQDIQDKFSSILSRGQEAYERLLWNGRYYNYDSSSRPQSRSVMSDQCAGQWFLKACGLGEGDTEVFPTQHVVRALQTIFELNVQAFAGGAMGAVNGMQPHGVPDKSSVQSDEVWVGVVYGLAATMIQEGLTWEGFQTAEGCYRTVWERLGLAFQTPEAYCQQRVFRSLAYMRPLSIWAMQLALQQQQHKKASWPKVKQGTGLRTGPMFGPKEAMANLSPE
Source text: In some embodiments, one or more of the compounds according to the invention may specifically bind a GBA2. In alternative embodiments, one or more of the compounds according to the invention may specifically bind the active site of a GBA2. […] In alternative embodiments, one or more of the compounds according to the invention may specifically bind the human non-lysosomal glucosylceramidase (GBA2) over the human lysosomal glucosylceramidase (GCase) and/or the human cytosolic glucosylceramidase (GBA3). In alternative embodiments, one or more of the compounds according to the invention may specifically bind the human non-lysosomal glucosylceramidase (GBA2) over the human glucosylceramide synthase (GCS). In alternative embodiments, one or more of the compounds according to the invention may specifically bind the human non-lysosomal glucosylceramidase (GBA2) over an intestinal alpha-glucosidase, where the intestinal alpha-glucosidase may be a sucrase-isomaltase or a maltase-glucoamylase.

[2] = Brain concentration when administered in vivo; details: compared to a suitable reference compound, e.g. NB-DNJ (miglustat) or AMP-DNM
Source text: Permeability can be assessed using a variety of standard experimental techniques, including without limitation in situ perfusion, ex vivo tissue diffusion, in vitro cell monolayers (e.g. Caco-2 cells, MDCK cells, LLC-PK1 cells), and artificial cell membranes (e.g. PAMPA assay); suitable techniques for measuring effective permeability (Peff) or apparent permeability (Papp) are reviewed for example by Volpe in The AAPS Journal, 2010, 12(4), 670-678. In some embodiments, one or more of the compounds according to the invention may show enhanced permeability when tested in one or more of these assays for determining Peff or Papp. […] In some embodiments, “enhanced permeability” means an increase in measured Peff or Papp by any value between about 10% and about 100%, or of any integer value between about 10% and about 100%, for example, about 10%, 20%, 30%, 40%, 50%, 60%, 70%, 80%, 90%, 100%, or over 100%, or an increase by about 1-fold, 2-fold, or 3-fold, or more, as compared to a suitable reference compound such as, for example, N-butyldeoxynojirimycin (NB-DNJ, miglustat) or N-(5-adamantane-1-yl-methoxy)pentyl)-deoxynojirimycin (AMP-DNM, Genz-529648). In some embodiments, “enhanced permeability” means a measurable Papp value (i.e. a value greater than zero) in a suitable assay to measure Papp using in vitro cell monolayers. In some embodiments, “enhanced permeability” means a Papp value greater than 2×10^−6 cm/s in a suitable assay to measure Papp using in vitro cell monolayers. In alternative embodiments, “enhanced permeability” means a Papp value in the range 2×10^−6 cm/s to 40×10^−6 cm/s in a suitable assay to measure Papp using in vitro cell monolayers. In some embodiments, “higher brain concentration” means an increase in measured brain concentration when the compound is administered in vivo by any value between about 10% and about 100%, or of any integer value between about 10% and about 100%, for example, about 10%, 20%, 30%, 40%, 50%, 60%, 70%, 80%, 90%, 100%, or over 100%, or an increase by about 1-fold, 2-fold, 3-fold, 4-fold, 5-fold, 10-fold, 20-fold, 30-fold, 40-fold, or 50-fold, or more, as compared to a suitable reference compound such as, for example, N-butyldeoxynojirimycin (NB-DNJ, miglustat) or N-(5-adamantane-1-yl-methoxy)pentyl)-deoxynojirimycin (AMP-DNM, Genz-529648).

GBA2 [3] = biological target: T1, GBA2; experiment: Determination of IC50 values for inhibition of GBA2 in cell lysate; type: biochemical; design: host or cells: HEK293T (lentiviral transduction, puromycin selection); used as cellular homogenate
Method in brief: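 Fluorogenic 4-MU-β-glucoside (250 μM) turnover over 20 min at 37 °C, pH 5.5, measured after NaOH/glycine stop (ex 365, em 450 nm). Enzyme source: lysate (0.083 mg/mL) of lentivirally transduced GBA2-HEK293T, GCase blocked by 20 μM azaspiro-octanediol; compound preincubated 5 min; IC50 = 50% inhibition concentration.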

[4] = cellular homogenate of HEK293T cells overexpressing human GBA2, 250 μM 4-methylumbelliferone-β-D glucopyranoside, pH 5.5, 37° C., GCase inhibitor present, read-out: GBA2 IC50

Compound	binding specificity (IC50 or Ki of other molecule / GBA2) (GBA2 [1])	brain concentration when administered in vivo [2]	IC50 (GBA2 [3]; [4]) [nM]	IC50 (GBA2 [3]) [nM]
C[C@@H]1[C@@H](O)[C@H](O)[C@@H](O)CN1C[C@H]1CC[C@H](C(F)(F)F)CC1 [Example 12, (2R,3R,4R,5S)-2-methyl-1-(((1r,4R)-4-(trifluoromethyl)cyclohexyl)methyl)piperidine-3,4,5-triol]	enhanced binding specificity	higher brain concentrations	< 100	
C[C@@H]1[C@@H](O)[C@H](O)[C@@H](O)CN1CC1CCN(c2ccc(F)cc2)CC1 [Example 85, (2R,3R,4R,5S)-1-((1-(4-fluorophenyl)piperidin-4-yl)methyl)-2-methylpiperidine-3,4,5-triol]		higher brain concentrations	< 100	
C[C@@H]1[C@@H](O)[C@H](O)[C@@H](O)CN1CCc1ccc2c(c1)OCO2 [Example 70, (2R,3R,4R,5S)-1-(2-(benzo[d][1,3]dioxol-5-yl)ethyl)-2-methylpiperidine-3,4,5-triol]	enhanced binding specificity	higher brain concentrations		< 100
C[C@@H]1[C@@H](O)[C@H](O)[C@@H](O)CN1CCc1c(F)ccc(Cl)c1F [Example 49, (2R,3R,4R,5S)-1-(3-chloro-2,6-difluorophenethyl)-2-methylpiperidine-3,4,5-triol]	enhanced binding specificity	higher brain concentrations		< 100
C[C@@H]1[C@@H](O)[C@H](O)[C@@H](O)CN1CCc1cccc(Cl)c1F [Example 45, (2R,3R,4R,5S)-1-(3-chloro-2-fluorophenethyl)-2-methylpiperidine-3,4,5-triol]	enhanced binding specificity	higher brain concentrations		< 100
CC(C)[C@H]1CC[C@@H](CN2C[C@H](O)[C@@H](O)[C@H](O)[C@H]2C)CC1 [Example 7, (2R,3R,4R,5S)-1-(((1s,4S)-4-isopropylcyclohexyl)methyl)-2-methylpiperidine-3,4,5-triol]	enhanced binding specificity	higher brain concentrations	< 100	
